Assay results taken from patent US20060239926A1, “Specific high-relaxivity compounds” (GUERBET, priority 2003, published 2006).
*: point of attachment. Cbz = O=C(OCc1ccccc1)*; NHOH = ON*

Columns and labels:
FBP = settings: cited from earlier work; for affinity for FBP relative to folic acid: order: pemetrexed>CB3717>IAHQ>2-NH2-ZD1694
[1] = Molar relaxivity (r1, r2) measurement; format: physicochemical; settings: 60 MHz; in water; 2 Gd per mol of product; uncertainty +/−5%
Text: Since BIO-FOLATE.I has 2 Gd per mol of product, the molar relaxivity values are summarized in this table (uncertainty +/−5%).

[2] = target: T1, Folate Binding Protein (FBP) (Bos taurus, UniProt P02702); assay: Study of affinity with Folate Binding Protein by means of BIAcore 3000
T1 construct: purchased Sigma F-0504
T1 sequence (P02702 20-234): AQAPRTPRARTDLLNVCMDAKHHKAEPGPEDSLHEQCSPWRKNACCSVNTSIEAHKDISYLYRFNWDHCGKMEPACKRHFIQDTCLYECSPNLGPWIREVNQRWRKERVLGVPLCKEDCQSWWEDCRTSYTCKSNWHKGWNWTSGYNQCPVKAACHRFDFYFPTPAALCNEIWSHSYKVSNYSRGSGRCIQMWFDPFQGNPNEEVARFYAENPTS
Protocol: (§1) The molar BIO-FOLATE.I relaxivity in water is very good, in particular at 60 MHz: r1=53 mM^−1·s^−1. It is recalled that the relaxivity obtained with specific products of the prior art of the type such as dendrimer associated with folates is r1=9.32 mM^−1s^−1 per Gd (Investigative Radiology, January 2000, vol 35, p 56). • Study of MRI imaging between 30 minutes and 24 hours the contrast at the level of the tumour is very clear, in particular 1 to 2 hours after injection. In addition, Gd assays by ICP-MS; were carried out on the reference organs at the end of the assays using the imager. […] The tumour/muscle ratio is of the order of 4 to 10 times that observed with previously used contrast products. Experimental Conditions for the BIACORE 3000 Studies on P860 and BIO-FOLATE.I (Study of Affinity Between P860, BIO-FOLATE.I, and Folate Binding Protein by Means of BIAcore 3000).
PGM buffer: 100 mM KH2PO4, pH 7, 10% glycerol and 4 mM β-mercaptoethanol
The FBP was immobilized at 1 mg/ml in PGM buffer according to the protocols recommended by BIAcore for coupling amines. Next, the remaining active carboxylated groups are saturated with 1M ethanolamine, pH=8.
The folate binding was followed at four different concentrations (125, 250, 500 and 1000 μM). The association and the dissociation were studied with a flow rate at 30 μl/min. […]

KB cells = assay: In vitro study of binding/internalization in KB cells; format: cell-based, Human; settings: 37° C., with or without excess free folic acid; ICP-MS assays
KB tumours = assay: Biodistribution study on nude mice bearing KB tumours
Text: c. Biodistribution study on nude mice bearing KB tumours: this biodistribution study comprised competition between P860 and free-folic acid. A group of animals received normal food and a co-injection of folic acid with the product tested and another was given a folate-depleted diet through a single injection of the product tested.
Conditions for Biodistribution Study on Nude Mice Part 1: • Induction of subcutaneous tumours in nude female mice and […] of human KB cells. • Separation of the animals into 2 groups receiving a diet with or without folate (10 days). • The group with folate receives an additional injection of folic acid (25 μmol/kg IV) 5 minutes before the injections of contrast product (CP). • IV injection of CP then removal of organ samples (muscle, tumour, liver, kidneys) and plasma samples. Part 2: Assays by ICP-AES • Gd assay (P860, BIO-FOLATE.I, Dotarem): liver, kidney. Part 3: Bioanalysis: Assay by ICP-MS • Gd assay (P860, BIO-FOLATE.I, Dotarem): tumour, muscle, plasma
Supplementing with Folate • 5.5 mM folic acid diluted in PBS and then injected at a dose of 25 μmol/kg (4.54 ml/kg).
Folic acid and CP: IV administration (caudal vein).
The folic acid was injected 5 minutes before the injection of CP.
Results: Tumour Distribution of the PC—Gd

tumours = assay: Study of MRI imaging between 30 minutes and 24 hours with Gd assays by ICP-MS; format: in vivo
Protocol: as §1

human MMP-1 [3] = target: T2, human MMP-1 (Homo sapiens, UniProt P03956); assay: In vitro MMP-inhibiting activity (fluorimetry), MMP-1; format: biochemical; settings: for CONCENTRATION OF PEPTIDE (with significant inhibitory effect): tested at 10^−5, 10^−7 and 10^−9 M with respect to peptides
T2 sequence (P03956 100-469): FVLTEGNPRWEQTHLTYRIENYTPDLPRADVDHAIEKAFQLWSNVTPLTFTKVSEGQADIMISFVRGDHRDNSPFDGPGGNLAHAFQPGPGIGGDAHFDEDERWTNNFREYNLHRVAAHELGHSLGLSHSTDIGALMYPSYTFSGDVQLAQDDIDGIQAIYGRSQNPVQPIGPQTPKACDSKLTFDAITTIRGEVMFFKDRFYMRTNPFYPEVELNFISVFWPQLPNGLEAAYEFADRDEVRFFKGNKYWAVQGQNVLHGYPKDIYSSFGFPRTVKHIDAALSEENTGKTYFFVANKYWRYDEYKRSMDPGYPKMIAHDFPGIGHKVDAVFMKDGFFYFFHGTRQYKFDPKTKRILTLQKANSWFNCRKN
Protocol: The inventors assayed the in vitro activity of the P947 and P967 gadolinium-chelate contrast products functionalized with matrix metalloproteases inhibitors (MMPs), on human MMP-1 and MMP-3. As regards the affinity of the biovector component, on the receptor, the controls were two peptides:
More precisely, the in vitro MMP-inhibiting activity was evaluated in the following way: • 1. Incubation of the test product in the presence of the MMP enzyme, at 37° C., for a defined period of time, and then measurement of the fluorescence of the medium (t=0). • 2. Induction of the enzyme reaction by addition of the substrate to (which becomes fluorescent when it is cleaved by the enzyme), and then incubation at 37° C. for 40 min. A second measurement of fluorescence is then taken (t=40). • 3. The activity of the MMP enzyme is determined by subtraction of the signal measured by fluorimetry: (t=40)-(t=0). • 4. The results are expressed as percentage inhibition of the activity of the control enzyme. • 5. The standard inhibitory product is TIMP-1.
The products were tested in duplicate, at 10^−5, 10^−7 and 10^−9 M with respect to peptides. Those which contain no peptides were treated in a manner similar to the corresponding functionalized contrast products.

human MMP-1 [4] = target: T2, human MMP-1; settings: value of the peptide component, not of the Gd conjugate, read-out: IC50 OF THE PEPTIDE (LITERATURE); cited from earlier work
αvβ5 = αvβ5 (Homo sapiens, UniProt P06756+P18084); settings: cited from earlier work
Sequence of αvβ5 (P06756 31-889 limits assumed): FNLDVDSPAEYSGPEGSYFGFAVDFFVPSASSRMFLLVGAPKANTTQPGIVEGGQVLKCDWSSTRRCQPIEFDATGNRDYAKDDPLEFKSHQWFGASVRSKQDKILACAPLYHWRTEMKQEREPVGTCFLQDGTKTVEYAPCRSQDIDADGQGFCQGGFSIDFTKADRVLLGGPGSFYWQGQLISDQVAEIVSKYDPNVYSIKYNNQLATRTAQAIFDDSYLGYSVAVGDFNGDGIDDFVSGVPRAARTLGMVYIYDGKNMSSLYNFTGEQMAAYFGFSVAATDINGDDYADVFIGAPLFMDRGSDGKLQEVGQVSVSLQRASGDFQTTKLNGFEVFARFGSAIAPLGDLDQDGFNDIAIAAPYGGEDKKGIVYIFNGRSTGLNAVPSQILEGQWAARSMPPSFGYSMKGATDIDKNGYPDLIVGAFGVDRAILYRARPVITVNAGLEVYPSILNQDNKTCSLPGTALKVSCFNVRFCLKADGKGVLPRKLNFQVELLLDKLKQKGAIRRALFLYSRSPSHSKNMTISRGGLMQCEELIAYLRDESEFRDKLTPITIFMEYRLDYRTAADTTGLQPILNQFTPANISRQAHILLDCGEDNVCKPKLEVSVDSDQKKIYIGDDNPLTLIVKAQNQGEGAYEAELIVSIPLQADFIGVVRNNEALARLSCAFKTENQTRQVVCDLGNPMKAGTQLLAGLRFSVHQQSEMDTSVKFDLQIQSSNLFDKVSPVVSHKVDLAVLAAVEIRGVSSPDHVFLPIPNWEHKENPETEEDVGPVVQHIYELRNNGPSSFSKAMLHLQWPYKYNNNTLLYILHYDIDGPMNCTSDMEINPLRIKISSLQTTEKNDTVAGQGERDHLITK
Sequence of αvβ5 (P06756 891-1048 partner limits assumed): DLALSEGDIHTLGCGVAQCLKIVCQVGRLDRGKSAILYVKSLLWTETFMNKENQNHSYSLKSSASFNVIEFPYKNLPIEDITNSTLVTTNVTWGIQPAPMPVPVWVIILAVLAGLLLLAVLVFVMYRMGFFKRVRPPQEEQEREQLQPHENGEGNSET
Sequence of αvβ5 (P18084 24-799): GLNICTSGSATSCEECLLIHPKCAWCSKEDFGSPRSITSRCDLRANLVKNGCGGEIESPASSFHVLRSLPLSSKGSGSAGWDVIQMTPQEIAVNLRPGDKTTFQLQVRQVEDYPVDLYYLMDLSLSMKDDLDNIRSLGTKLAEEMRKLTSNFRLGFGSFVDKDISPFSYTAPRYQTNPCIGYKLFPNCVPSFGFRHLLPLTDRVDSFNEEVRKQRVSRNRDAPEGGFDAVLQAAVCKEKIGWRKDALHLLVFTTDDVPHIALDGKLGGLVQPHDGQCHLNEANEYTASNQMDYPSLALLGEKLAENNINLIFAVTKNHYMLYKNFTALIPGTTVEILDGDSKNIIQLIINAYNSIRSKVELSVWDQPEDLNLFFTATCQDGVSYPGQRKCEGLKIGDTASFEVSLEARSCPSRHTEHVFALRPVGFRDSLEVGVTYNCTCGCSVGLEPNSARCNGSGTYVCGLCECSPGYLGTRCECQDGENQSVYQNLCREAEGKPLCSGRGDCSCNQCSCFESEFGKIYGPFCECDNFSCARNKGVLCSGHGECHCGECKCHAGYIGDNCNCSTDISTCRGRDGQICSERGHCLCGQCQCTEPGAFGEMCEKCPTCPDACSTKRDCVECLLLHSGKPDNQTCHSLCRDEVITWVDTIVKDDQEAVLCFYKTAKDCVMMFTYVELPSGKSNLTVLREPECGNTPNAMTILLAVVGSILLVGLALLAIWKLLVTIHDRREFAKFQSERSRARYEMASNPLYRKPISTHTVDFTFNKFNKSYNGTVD

α5β1 = α5β1 (Homo sapiens, UniProt P05556+P08648); settings: cited from earlier work
Sequence of α5β1 (P08648 42-894 limits assumed): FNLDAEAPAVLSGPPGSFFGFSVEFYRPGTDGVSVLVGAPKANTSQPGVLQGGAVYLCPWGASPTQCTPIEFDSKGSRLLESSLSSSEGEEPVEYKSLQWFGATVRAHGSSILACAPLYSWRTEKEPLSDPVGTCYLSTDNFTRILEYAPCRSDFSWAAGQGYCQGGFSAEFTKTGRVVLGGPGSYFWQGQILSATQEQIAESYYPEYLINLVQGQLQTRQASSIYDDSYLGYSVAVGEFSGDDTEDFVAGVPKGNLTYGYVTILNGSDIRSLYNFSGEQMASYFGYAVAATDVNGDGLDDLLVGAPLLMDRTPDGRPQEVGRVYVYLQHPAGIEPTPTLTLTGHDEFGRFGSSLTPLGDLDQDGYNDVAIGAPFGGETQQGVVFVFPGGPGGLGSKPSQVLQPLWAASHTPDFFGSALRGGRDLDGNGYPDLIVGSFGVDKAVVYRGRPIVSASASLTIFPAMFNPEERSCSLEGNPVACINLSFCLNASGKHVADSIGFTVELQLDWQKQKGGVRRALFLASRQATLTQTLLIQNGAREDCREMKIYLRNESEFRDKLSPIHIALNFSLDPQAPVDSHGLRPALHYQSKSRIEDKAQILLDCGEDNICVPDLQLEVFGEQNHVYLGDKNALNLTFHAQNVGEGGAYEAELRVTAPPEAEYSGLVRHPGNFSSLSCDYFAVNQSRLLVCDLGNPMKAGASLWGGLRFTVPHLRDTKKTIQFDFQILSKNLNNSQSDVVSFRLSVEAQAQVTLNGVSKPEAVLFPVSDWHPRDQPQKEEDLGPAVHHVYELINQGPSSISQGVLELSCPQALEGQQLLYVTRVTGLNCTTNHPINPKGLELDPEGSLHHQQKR
Sequence of α5β1 (P08648 895-1049 partner limits assumed): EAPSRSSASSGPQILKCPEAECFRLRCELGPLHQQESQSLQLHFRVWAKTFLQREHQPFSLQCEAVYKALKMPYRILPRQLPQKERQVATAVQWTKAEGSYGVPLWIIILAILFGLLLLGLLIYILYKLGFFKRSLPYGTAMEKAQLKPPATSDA
Sequence of α5β1 (P05556 21-798): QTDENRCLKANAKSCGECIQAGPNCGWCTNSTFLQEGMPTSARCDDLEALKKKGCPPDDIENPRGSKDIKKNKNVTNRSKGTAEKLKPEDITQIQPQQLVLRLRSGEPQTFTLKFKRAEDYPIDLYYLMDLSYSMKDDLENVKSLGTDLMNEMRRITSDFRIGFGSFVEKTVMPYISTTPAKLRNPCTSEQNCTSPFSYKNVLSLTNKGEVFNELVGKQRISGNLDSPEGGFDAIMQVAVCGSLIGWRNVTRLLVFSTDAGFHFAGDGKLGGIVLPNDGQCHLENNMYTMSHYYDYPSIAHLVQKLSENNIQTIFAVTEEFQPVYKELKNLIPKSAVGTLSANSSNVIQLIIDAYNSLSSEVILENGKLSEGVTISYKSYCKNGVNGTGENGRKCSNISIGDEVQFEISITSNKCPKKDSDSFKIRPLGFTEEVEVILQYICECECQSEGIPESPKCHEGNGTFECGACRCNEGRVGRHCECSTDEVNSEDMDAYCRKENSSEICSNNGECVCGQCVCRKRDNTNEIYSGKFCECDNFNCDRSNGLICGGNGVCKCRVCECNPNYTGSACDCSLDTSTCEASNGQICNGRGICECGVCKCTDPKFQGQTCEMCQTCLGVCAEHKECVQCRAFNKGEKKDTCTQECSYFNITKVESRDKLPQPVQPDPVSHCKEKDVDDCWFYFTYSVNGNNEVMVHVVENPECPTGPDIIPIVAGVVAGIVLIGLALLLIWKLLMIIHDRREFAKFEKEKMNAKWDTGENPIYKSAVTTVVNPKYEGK

Compound: NC1=NC2=C(S[C@H](CCc3ccc(C(=O)N[C@@H](CCC(=O)O)C(=O)O)s3)CN2)C(O)N1 (some centres unmarked)
- Kd (FBP): 0.0032 nM

Compound: Nc1nc2ncc(CNc3ccc(C(=O)N[C@@H](CCC(=O)NCCCOCCOCCOCCCNc4c(NCCOCCOCCNc5nc(Nc6ccc(CCC(C(=O)O)N7CCN(C(CCC(=O)NCC(=O)Nc8c(Br)c(C(=O)N(CC(O)C(O)C(O)C(O)CO)CC(O)C(O)C(O)C(O)CO)c(Br)c(C(=O)N(CC(O)C(O)C(O)C(O)CO)CC(O)C(O)C(O)C(O)CO)c8Br)C(=O)O)CCN(C(CCC(=O)NCC(=O)Nc8c(Br)c(C(=O)N(CC(O)C(O)C(O)C(O)CO)CC(O)C(O)C(O)C(O)CO)c(Br)c(C(=O)N(CC(O)C(O)C(O)C(O)CO)CC(O)C(O)C(O)C(O)CO)c8Br)C(=O)O)CCN(C(CCC(=O)NCC(=O)Nc8c(Br)c(C(=O)N(CC(O)C(O)C(O)C(O)CO)CC(O)C(O)C(O)C(O)CO)c(Br)c(C(=O)N(CC(O)C(O)C(O)C(O)CO)CC(O)C(O)C(O)C(O)CO)c8Br)C(=O)O)CC7)cc6)nc(Nc6ccc(CCC(C(=O)O)N7CCN(C(CCC(=O)NCC(=O)Nc8c(Br)c(C(=O)N(CC(O)C(O)C(O)C(O)CO)CC(O)C(O)C(O)C(O)CO)c(Br)c(C(=O)N(CC(O)C(O)C(O)C(O)CO)CC(O)C(O)C(O)C(O)CO)c8Br)C(=O)O)CCN(C(CCC(=O)NCC(=O)Nc8c(Br)c(C(=O)N(CC(O)C(O)C(O)C(O)CO)CC(O)C(O)C(O)C(O)CO)c(Br)c(C(=O)N(CC(O)C(O)C(O)C(O)CO)CC(O)C(O)C(O)C(O)CO)c8Br)C(=O)O)CCN(C(CCC(=O)NCC(=O)Nc8c(Br)c(C(=O)N(CC(O)C(O)C(O)C(O)CO)CC(O)C(O)C(O)C(O)CO)c(Br)c(C(=O)N(CC(O)C(O)C(O)C(O)CO)CC(O)C(O)C(O)C(O)CO)c8Br)C(=O)O)CC7)cc6)n5)c(=O)c4=O)C(=O)O)cc3)nc2c(=O)[nH]1 (some centres unmarked) [BIO-FOLATE.I]
- molar r1 [1]: 53 mM⁻¹ s⁻¹
- binding to FBP (folate binding protein) in vitro [2]: binds specifically to FBP
- amount of product specifically bound and internalized in KB cells (KB cells): Correct capture
- accumulation in the tumours (KB tumours; 15 μmol/kg): excellent accumulation
- decrease of product in the tumour by folic acid (KB tumours; competition with free folate, times 4 and 24 h): 2 times less
- injected dose found in the tumour (KB tumours; female, nude, mouse, in vivo, iv): 5-8%
- injected theoretical dose found in the tumours (KB tumours; folate-free diet, at 4 h): 14%
- injected theoretical dose found in the tumours (KB tumours; folate-free diet, at 72 h): 7%
- effect of prior injection of free folic acid on tumour Gd (KB tumours; free folic at 25 μmol/kg before the product): decrease the Gd concentrations assayed in the tumours
- activity in vivo (KB tumours; in vivo studies (biodistribution, MRI)): P860 is inactive in vivo unlike BIO-FOLATE.I and BIO-FOLATE.II
- contrast at the level of the tumour (MRI) (tumours; between 30 minutes and 24 hours, in particular 1 to 2 hours after injection): very clear
- heightening of the tumours, duration (tumours; versus products of the prior art): longer lasting than with products of the prior art

Compound: C#CCN(Cc1ccc2nc(N)[nH]c(=O)c2c1)c1ccc(C(=O)N[C@@H](CCC(=O)O)C(=O)O)cc1 [CB3717]
- affinity for FBP relative to folic acid (FBP): affinity greater than folic acid

Compound: CNC[C@H](O)[C@@H](O)[C@H](O)[C@H](O)CO.O=C([O-])CN1CCN(CC(=O)[O-])CCN(CC(=O)O)CCN(CC(=O)[O-])CC1.[Gd+3] [Dotarem]
- injected theoretical dose found in the tumours (KB tumours; mouse, in vivo): 1-2%
- intratumour amounts corrected for g of tissue (KB tumours; mouse, in vivo): negligable beyond 4 h

Compound: CN(Cc1ccc2nc(N)[nH]c(=O)c2c1)c1ccc(C(=O)NC(CCC(=O)O)C(=O)O)s1 (centres unmarked) [Example 2-NH2-ZD1694]
- affinity for FBP relative to folic acid (FBP): affinity greater than folic acid

Compound: CC(C)C[C@@H](NC(=O)[C@@H]1CCCN1C(=O)CNC(=O)c1ccc(NC(=S)Nc2ccc(CCC(C(=O)O)N3CCN(CC(=O)O)CCN(CC(=O)O)CCN(CC(=O)O)CC3)cc2)cc1)C(=O)N[C@@H](C)C(=O)NO (some centres unmarked) [Example P947]
- SIGNIFICANT INHIBITORY EFFECT (human MMP-1 [3]; concentration of peptide 10^−5M): 86%
- CONCENTRATION OF PEPTIDE (with significant inhibitory effect) (human MMP-1 [3]): 10^−5M
- IC50 (human MMP-1 [4]): 1000 nM

Compound: Nc1nc2ccc(NCc3ccc(C(=O)N[C@@H](CCC(=O)O)C(=O)O)cc3)cc2c(=O)[nH]1 [IAHQ]
- affinity for FBP relative to folic acid (FBP): affinity greater than folic acid

Compound: Nc1nc(O)c2c(CCc3ccc(C(=O)N[C@@H](CCC(=O)O)C(=O)O)cc3)c[nH]c2n1 [pemetrexed]
- affinity for FBP relative to folic acid (FBP): affinity greater than folic acid

Compound: Cbz-Pro-Leu-Gly-{NHOH} [PEPTIDE A]
- CONCENTRATION OF PEPTIDE (with significant inhibitory effect) (human MMP-1 [3]): >10^−5M
- IC50 (human MMP-1 [4]): 40000 nM

Compound: cyclo(ARGD-Mamb) [XJ735]
- blocking of αvβ5 (αvβ5): does not block
- blocking of α5β1 (α5β1): does not block
